US20260028410A1, “TREATMENT OF GRAFT VERSUS HOST DISEASES USING ANTI-CD122 ANTIBODY” (FORTE SUBSIDIARY, INC., priority 2023, published 2026)

Key:
[1] = tested on: human T and NK cell-mediated aGvHD (xenograft GvHD mouse model); assay: Acute GvHD xenograft mouse model, dose-ranging of Antibody 1 (Example 1), survival; assay type: in vivo, NCG-hIL-15 mice transplanted with human PBMCs; conditions: Day 14; 60 mcg each twice daily oral D5-D14; n=10
Procedure: A xenograft GvHD mouse model was utilized to study human T and NK cell-mediated aGvHD and the therapeutic effects of anti-CD122 antibody treatment therein. Female NCG-hIL-15 mice were irradiated at a dosage of 100 cGy on Day 1 of the protocol and human peripheral blood mononuclear cells (PBMCs) were transplanted via injection at a dosage of 1×10^7 cells/200 μL/mice via IV administration into the irradiated mice. PBMCs are immune cells that originate in the bone marrow and are secreted into the peripheral circulation forming critical components of the immune system. PBMCs are involved in humoral and cell-mediated immune function. […] Groups of 10 mice were used for each test category. A vehicle group (n=10) served as a negative control with no treatment administered (only a combination of vehicle treatments) following transplant. A positive control group (n=10) of mice treated with 60 mcg each of ruxolitinib twice daily by oral administration was included in the study design. Ruxolitinib-treated animals were treated via oral administration of ruxolitinib twice daily on D5, D6, D7, D8, D9, D10, D11, D12, D13, and D14. Three groups of Antibody 1 treated animals (n=10 for each group) were tested using a) 75 milligram per kilogram of body weight (mpk) of antibody, b) 125 mpk of antibody, and c) 175 mpk of antibody, respectively. […]

[2] = tested on: human T and NK cell-mediated aGvHD (xenograft GvHD mouse model); assay: Acute GvHD xenograft mouse model, single vs combination therapy with Antibody 1 (Example 2), survival; assay type: in vivo, NCG-hIL-15 mice transplanted with human PBMCs; conditions: ruxolitinib 60 mpk twice-daily oral, Antibody 1 75 mpk once-daily IP, D5-D18
Procedure: (§1) A xenograft GvHD mouse model was utilized to study human T and NK cell-mediated aGvHD and the therapeutic effects of anti-CD122 antibody treatment in single or combination therapy approaches. Female NCG-hIL-15 mice were irradiated at a dosage of 100 cGy on Day 1 of the protocol and human peripheral blood mononuclear cells (PBMCs) were transplanted via injection at a dosage of 1×10^7 cells/200 μL/mice via IV administration into the irradiated mice according to the same xenograft GvHD mouse model design as in Example 1.
Treatment according to 3 different grouping of animals was begun on Day 5 following transplant, as shown in the study design of FIG. 3. Groups of 10 mice were used for each test category. A single treatment group, Group #1, (n=10) received ruxolitinib (at a dosage of 60 mpk) twice-daily by oral administration beginning on Day 5 and ending on Day 18. Days of treatment were D5, D6, D7, D8, D9, D10, D11, D12, D13, D14, D15, D16, D17, and D18. A combination therapy group, Group #2, (n=10) received ruxolitinib (at a dosage of 60 mpk) twice-daily by oral administration beginning on Day 5 and ending on Day 18. Days of treatment using ruxolitinib in Group #2 were D5, D6, D7, D8, D9, D10, D11, D12, D13, D14, D15, D16, D17, and D18. Group #2 animals separately received treatment with Antibody 1 (anti-CD122 antibody as described herein) at a dosage of 75 mpk once-daily by IP administration. Days of treatment using Antibody 1 in Group #2 were D5, D6, D7, D8, D9, D10, D11, D12, D13, D14, D15, D16, D17, and D18. A vehicle group, Group #3, (n=10) served as a negative control with vehicle-only administered following transplant received twice daily oral placebo (vehicle only) beginning on Day 5 and ending on Day 18. Days of oral placebo treatment were D5, D6, D7, D8, D9, D10, D11, D12, D13, D14, D15, D16, D17, and D18. […]
(§2) Day 18 was the end of study day for all treatment groups. Animals from all treatment groups were assessed daily beginning on Day 1 and ending on Day 18 for survival following transplant. […]

[3] = tested on: human T and NK cell-mediated aGvHD (xenograft GvHD mouse model); assay: Acute GvHD xenograft mouse model, single vs combination therapy with Antibody 2 or Antibody 3 (Example 5), survival; assay type: in vivo, NCG-hIL-15 mice transplanted with human PBMCs
Procedure: as §1
Treatment according to 3 different grouping of animals was begun on Day 5 following transplant, as shown in the study design of FIG. 5. Groups of a sufficient number of mice were used for each test category in order to evaluate a significant difference between test groups. A single treatment group, Group #1, received ruxolitinib (at a dosage of 60 mpk) twice-daily by oral administration beginning on Day 5 and ending on Day 18. Days of treatment are D5, D6, D7, D8, D9, D10, D11, D12, D13, D14, D15, D16, D17, and D18. A combination therapy group, Group #2, received ruxolitinib (at a dosage of 60 mpk) twice-daily by oral administration beginning on Day 5 and ending on Day 18. Days of treatment using ruxolitinib in Group #2 were D5, D6, D7, D8, D9, D10, D1I, D12, D13, D14, D15, D16, D17, and D18. Group #2 animals separately receive anti-CD122 antibody therapy (at a dosage of 75 mpk) once-daily by IP administration. Days of treatment using anti-CD122 antibody in Group #2 were D5, D6, D7, D8, D9, D10, D11, D12, D13, D14, D15, D16, D17, and D18. A vehicle group, Group #3, served as a negative control with vehicle-only administered following transplant received twice daily oral placebo (vehicle only) beginning on Day 5 and ending on Day 18. Days of oral placebo treatment were D5, D6, D7, D8, D9, D10, D11, D12, D13, D14, D15, D16, D17, and D18. […]
as §2

[4] = target: high-affinity heterotrimer IL-αβγ receptor; conditions: ligand affinity for IL-αβγ receptor combinations; cited from earlier work
[5] = target: T1, Intermediate-affinity heterodimeric IL-βγ receptor (Homo sapiens, UniProt P14784+P31785); conditions: ligand affinity for IL-βγ receptor (CD122/CD132); cited from earlier work
T1 sequence (P14784 27-551): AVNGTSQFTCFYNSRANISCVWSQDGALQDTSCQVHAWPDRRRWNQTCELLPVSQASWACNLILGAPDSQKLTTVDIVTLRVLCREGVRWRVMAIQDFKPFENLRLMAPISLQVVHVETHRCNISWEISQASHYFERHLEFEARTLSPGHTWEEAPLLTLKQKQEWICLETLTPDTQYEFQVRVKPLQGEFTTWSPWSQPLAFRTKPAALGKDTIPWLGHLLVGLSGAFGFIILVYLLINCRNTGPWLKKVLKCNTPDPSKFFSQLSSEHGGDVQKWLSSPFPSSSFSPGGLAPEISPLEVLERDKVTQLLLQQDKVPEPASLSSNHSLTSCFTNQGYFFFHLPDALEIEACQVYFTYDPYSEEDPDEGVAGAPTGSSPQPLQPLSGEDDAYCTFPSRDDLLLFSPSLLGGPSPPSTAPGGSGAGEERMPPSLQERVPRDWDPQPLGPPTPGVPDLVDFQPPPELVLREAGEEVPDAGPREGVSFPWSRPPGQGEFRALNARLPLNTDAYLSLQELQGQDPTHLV
T1 sequence (P31785 23-369): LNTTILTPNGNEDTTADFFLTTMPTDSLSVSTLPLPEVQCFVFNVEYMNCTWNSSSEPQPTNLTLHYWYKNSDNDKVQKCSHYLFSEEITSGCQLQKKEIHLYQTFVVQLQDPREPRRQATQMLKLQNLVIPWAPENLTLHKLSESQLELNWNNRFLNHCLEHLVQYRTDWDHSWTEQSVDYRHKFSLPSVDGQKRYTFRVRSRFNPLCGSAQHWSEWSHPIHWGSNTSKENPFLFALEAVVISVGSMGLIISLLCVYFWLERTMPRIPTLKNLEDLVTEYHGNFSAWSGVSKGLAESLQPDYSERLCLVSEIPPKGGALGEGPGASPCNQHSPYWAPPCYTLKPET

| Molecule | survival at study conclusion [1] | survival rate at the end of the study ([2]; Day 18, n=10) | Average survival time ([2]; up to Day 18, Mean ± SD) | Median survival ([2]; up to Day 18) | survival on Day 18 ([3]; Day 18, ruxolitinib 60 mpk twice-daily oral, anti-CD122 antibody 75 mpk once-daily IP, D5-D18, n=10) | Median survival ([3]; aGvHD xenograft mice, treatment Day 5 to Day 18 (ruxolitinib 60 mpk twice-daily oral; anti-CD122 antibody 75 mpk once-daily IP), followed to Day 18) | Average survival time ([3]; aGvHD xenograft mice, treatment Day 5 to Day 18 (ruxolitinib 60 mpk twice-daily oral; anti-CD122 antibody 75 mpk once-daily IP), followed to Day 18, Mean ± SD) | Kd [4] | Kd [5] |
| --- | --- | --- | --- | --- | --- | --- | --- | --- | --- |
| N#CC[C@H](C1CCCC1)n1cc(-c2ncnc3[nH]ccc23)cn1 [ruxolitinib] | 60% | 30% | 16.3 ± 3.4 days | 17.5 days | 0% | 14 days | 13.20 ± 0.93 days |  |  |
| IL15: cytokine interleukin 15 |  |  |  |  |  |  |  | ~0.01 nM | ~1 nM |
